From patent US20220387342A1, “TRANSDERMAL PATCH” (University of Sunderland, priority 2019, published 2022)
Values after ≈ are worked out from the molar mass of the structure shown. Counter-ions that a name gives are not always drawn.

What was measured:
[1] = tested on: bacteria, moulds and yeasts; experiment: Stability study: microbiology of patches (Mikrocount duo dipslides); settings: storage up to 6 months, ambient and accelerated
Method: Mikrocount® duo dipslides (Schulke & Mayr GmbH, Norderstedt, Germany) were used to determine total plate count and to detect presence of moulds and yeasts. The surface of each side of the dipslide was placed in contact with the hydrogel surface of the patch for 5 seconds. The dipslides were then placed in their sealed container and incubated for 72 hours at 27±1° C. Once incubated, the dipslides were compared to images within the Mikrocount® brochure to evaluate the colony forming units per cm^2.

[2] = Differential scanning calorimetry: drug crystallinity and saturation in PEO films; format: physicochemical; settings: from plot of enthalpy of fusion against drug concentration, y = 0
Method: Differential scanning calorimetry (DSC) of NTX.base, NTX.HCl, PEO and loaded hydrogel films (irradiated and non-irradiated) may be performed with suitable DSC instruments, such as a DSC Q1000 (TA Instruments, New Castle, Del., USA). The DSC was conditioned for two hours prior to use. Samples (5-10 mg) were accurately weighed using a microbalance (Mettler-Toledo, Greifensee, Switzerland), placed in an aluminium hermetic sample pan and sealed with a hermetic lid (TA Instruments, New Castle, Del., USA). The samples were subjected to standard heat/cool/heat at a rate of 10° C./min, under a constant flow of nitrogen at a rate of 50 mL/min. Suitable settings include the following: • For NTX.base API and NTX.base loaded films, the heat/cool/heat cycle was from −80° C. to 200° C. to −80° C. to 200° C. • NTX.HCl API was heated from −80° C. to 285° C., then cooled to −80° C., and then heated for a second time to 285° C. […]
DSC analysis was performed, in accordance with the method described in the “Assays” part of the present disclosure. […] From the enthalpy of fusion values for NTX.HCl within the films, the saturation solubility of naltrexone hydrochloride within PEO was calculated by plotting enthalpy against drug concentration. […]

[3] = tested on: bacteria, yeasts and moulds; experiment: Small scale study of microbial growth in naltrexone solutions; settings: for bacterial colony count: after 3 weeks incubation time; for microbial growth: summary b334
Method: This was also evidenced in a small scale study in which the microbial growth in solutions of naltrexone base and naltrexone hydrochloride were compared to a control after being stored for 25 days at 27° C. […] After 48 hours, the bacterial colony count increased to approximately 10^4 CFU/mL in the control sample and to approximately 10^2 CFU/mL in the NTX base sample. […] After 3 weeks incubation time, the bacterial colony count increased to ˜10^5 CFU/mL on the control sample, ˜10^3 CFU/mL for naltrexone base and ˜10^2 CFU/mL for naltrexone hydrochloride. Thus, a longer incubation time was required for growth of microbial colonies in the medicated samples.

[4] = tertiary aliphatic nitrogen; cited from earlier work
[5] = Stability study: drug content of hydrogel films after storage (HPLC), shelf life estimate; format: physicochemical; settings: 0-6 months, ambient and accelerated
Method: The stability of the transdermal patch of the invention may be investigated over the course of 6 months under ambient (20.9±0.6° C./43±2.5% RH) and accelerated (40° C./75% RH) conditions. The patches are tested at time intervals of 0, 1, 2, 3 and 6 months to determine the extent of any physical, chemical and microbial changes that may have occurred.
Packaged pouches were either placed under ambient conditions (20.9±0.7° C./46.0±3.1% RH) or under accelerated conditions (40° C./75% RH), for 6 months with intermediate testing at 0, 1, 2, 3 and 6 months according to the protocol in Table 7.
To quantify the amount of drug present at each time point, hydrogel films were removed from each patch (n=3) at 0, 1, 3 and 6 months and dissolved in 5 mL 80% v/v acetonitrile for 16 hours at 30° C. in an Elmasonic S 30 H sonicating water bath (Elma Schmidbauer, Singen, Germany). After 16 hours, the samples were filtered using 0.2 μm Whatman syringeless filters vials with nylon filter media and polypropylene housing (GE Healthcare UK Ltd., Little Chalfont, Buckinghamshire, UK) and injected in triplicate to the HPLC.
Based on the drug content of the hydrogels only, a shelf life may be predicted by extrapolating the data and calculating how long it would take to reach 90% of the stated dose. […]

[6] = cited from earlier work

CC(O)CO (centres unmarked) [propylene glycol]
microbial growth on patches [1]: prevented bacteria, yeast and mould from growing at all throughout the study

O=C1CC[C@@]2(O)[C@H]3Cc4ccc(O)c5c4[C@@]2(CCN3CC2CC2)[C@H]1O5 [naltrexone hydrochloride]
maximum drug loading before crystals are loaded to the film (saturation solubility within PEO) [2]: 4.40 % w/w
bacterial colony count ([3]; solutions, hydrochloride): approximately 10^2 CFU/mL
bacterial growth ([3]; solutions, after 72 hours): Negligible bacterial growth
microbial growth ([3]; solutions, hydrochloride): approximately 10^2 CFU/mL

O=C1CC[C@@]2(O)[C@H]3Cc4ccc(O)c5c4[C@@]2(CCN3CC2CC2)[C@H]1O5 [naltrexone base, 17-(Cyclopropylmethyl)-4,5α-epoxy-3,14-dihydroxymorphinan-6-one]
pKa [4]: 8.3
degradation of naltrexone under storage (HPLC chromatograms) [5]: did not degrade under storage into any other compounds
aqueous solubility [6]: 510 µg/mL (≈ 1490 µM)
yeasts or moulds ([3]; any incubation time point): No yeasts or moulds were detected
bacterial colony count ([3]; solutions): ~10^3 CFU/mL
microbial growth ([3]; solutions): approximately 10^3 CFU/mL
